This note sets out measurements from ChEMBL document CHEMBL3739306, “Enantiomeric resolution of [(2,2-diphenyl-1,3-dioxolan-4-yl)methyl](2-phenoxyethyl)amine, a potent 1and 5-HT1Areceptor ligand: an in vitro and computational study” (Medchemcomm, 2015).

In assay [1] the target is T1, Alpha-1A adrenergic receptor (Homo sapiens, UniProt P35348).
T1 sequence (P35348 whole entry): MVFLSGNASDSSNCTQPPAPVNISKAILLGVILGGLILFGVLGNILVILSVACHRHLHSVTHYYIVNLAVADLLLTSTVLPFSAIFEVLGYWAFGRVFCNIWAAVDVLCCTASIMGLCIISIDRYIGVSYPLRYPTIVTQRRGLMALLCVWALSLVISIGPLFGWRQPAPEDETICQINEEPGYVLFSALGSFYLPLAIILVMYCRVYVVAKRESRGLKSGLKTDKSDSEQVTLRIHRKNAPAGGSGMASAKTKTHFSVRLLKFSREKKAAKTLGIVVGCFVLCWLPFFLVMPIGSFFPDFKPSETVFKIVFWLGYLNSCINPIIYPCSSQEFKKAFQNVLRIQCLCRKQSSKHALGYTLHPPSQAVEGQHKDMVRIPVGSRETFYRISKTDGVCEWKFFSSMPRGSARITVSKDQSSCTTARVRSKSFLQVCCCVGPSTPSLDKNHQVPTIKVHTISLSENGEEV
Kind of assay: Displacement of [3H]prazosin from human recombinant alpha1A adrenoceptor expressed in CHO cell membrane after 30 mins by liquid scintillation counting. The assay is classed as cell membranes.

Assay [2] has as its target T2, Alpha-1D adrenergic receptor (Homo sapiens, UniProt P25100).
T2 sequence (P25100 whole entry): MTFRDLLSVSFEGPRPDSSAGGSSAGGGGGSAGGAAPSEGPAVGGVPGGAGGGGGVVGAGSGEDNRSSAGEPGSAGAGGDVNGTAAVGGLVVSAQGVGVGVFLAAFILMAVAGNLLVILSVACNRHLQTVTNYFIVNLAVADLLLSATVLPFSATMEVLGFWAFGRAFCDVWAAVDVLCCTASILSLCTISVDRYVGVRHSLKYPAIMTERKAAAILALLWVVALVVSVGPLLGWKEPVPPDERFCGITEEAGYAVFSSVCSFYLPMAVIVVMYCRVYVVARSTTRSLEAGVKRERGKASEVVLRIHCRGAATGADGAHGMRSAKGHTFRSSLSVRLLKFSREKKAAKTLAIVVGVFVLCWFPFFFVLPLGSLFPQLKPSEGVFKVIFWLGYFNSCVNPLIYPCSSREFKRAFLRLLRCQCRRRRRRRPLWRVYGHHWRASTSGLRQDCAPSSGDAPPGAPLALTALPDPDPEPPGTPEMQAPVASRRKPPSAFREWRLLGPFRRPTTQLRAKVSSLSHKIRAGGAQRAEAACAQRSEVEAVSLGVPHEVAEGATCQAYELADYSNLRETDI
The assay can be described thus: Displacement of [3H]prazosin from human recombinant alpha1D adrenoceptor expressed in CHO cell membrane after 30 mins by liquid scintillation counting. The assay is classed as cell membranes. (Loss of bound radioactivity is the signal in a displacement assay; it reports binding, not function.)

Assay [3] is filed under the species Rattus norvegicus. The assay can be described thus: Selectivity ratio of pKb for alpha1A adrenoceptor in Wistar rat vas deferans to pKb for alpha1B adrenoceptor in Wistar rat spleen.
Assay [4] concerns CHO. Kind of assay: Selectivity index, ratio of pKi for human recombinant alpha1D adrenoceptor to pKi for human recombinant alpha1A adrenoceptor expressed in CHO cell membrane. The assay is classed as cell-based.
For assay [5], the target named is T3, Alpha-1D adrenergic receptor (Rattus norvegicus, UniProt P23944).
T3 sequence (P23944 whole entry): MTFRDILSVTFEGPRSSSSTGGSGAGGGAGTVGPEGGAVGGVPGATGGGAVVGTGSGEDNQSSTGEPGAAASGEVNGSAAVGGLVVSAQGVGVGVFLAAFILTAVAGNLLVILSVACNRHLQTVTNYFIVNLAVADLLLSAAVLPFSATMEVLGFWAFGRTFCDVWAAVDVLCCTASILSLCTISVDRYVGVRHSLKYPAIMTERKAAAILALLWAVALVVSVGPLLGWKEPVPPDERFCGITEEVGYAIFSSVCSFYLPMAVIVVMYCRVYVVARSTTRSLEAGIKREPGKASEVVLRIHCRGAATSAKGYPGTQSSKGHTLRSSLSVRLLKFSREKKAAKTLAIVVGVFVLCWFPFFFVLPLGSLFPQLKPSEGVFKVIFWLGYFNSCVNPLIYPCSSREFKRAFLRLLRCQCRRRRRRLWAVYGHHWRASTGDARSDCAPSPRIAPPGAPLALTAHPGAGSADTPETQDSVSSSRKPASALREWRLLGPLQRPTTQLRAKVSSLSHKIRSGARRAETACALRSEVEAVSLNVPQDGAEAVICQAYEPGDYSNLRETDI
Kind of assay: Antagonist activity at alpha1D adrenoceptor in Wistar rat thoracic aorta assessed as noradrenaline-induced contractions after 30 mins. Conditions: read-out: pA2 (converted). Type of assay: tissue-based.

The species entered for assay [6] is Rattus norvegicus. The assay can be described thus: Selectivity ratio of pA2 for alpha1D adrenoceptor in Wistar rat thoracic aorta to pKb for alpha1A adrenoceptor in Wistar rat vas deferans.
In assay [7] the target is T4, 5-hydroxytryptamine receptor 1A (Homo sapiens, UniProt P08908).
T4 sequence (P08908 whole entry): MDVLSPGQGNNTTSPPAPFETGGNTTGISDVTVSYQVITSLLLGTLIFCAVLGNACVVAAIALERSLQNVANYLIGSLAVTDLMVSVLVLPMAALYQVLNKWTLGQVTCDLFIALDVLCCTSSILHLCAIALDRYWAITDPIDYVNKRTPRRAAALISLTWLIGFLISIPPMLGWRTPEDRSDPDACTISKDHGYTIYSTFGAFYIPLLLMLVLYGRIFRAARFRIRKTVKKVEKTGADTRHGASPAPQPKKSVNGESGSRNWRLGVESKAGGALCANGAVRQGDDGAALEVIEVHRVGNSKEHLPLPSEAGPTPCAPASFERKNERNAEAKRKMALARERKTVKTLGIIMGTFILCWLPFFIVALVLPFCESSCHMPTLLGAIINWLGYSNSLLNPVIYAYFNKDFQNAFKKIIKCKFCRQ
Kind of assay: Displacement of [3H]8-OH-DPAT from human recombinant 5-HT1A receptor expressed in HeLa cell membrane after 30 mins by liquid scintillation counting. Type of assay: cell membranes.

For assay [8], the target named is T5, Alpha-1B adrenergic receptor (Rattus norvegicus) (UniProt P15823).
T5 sequence (whole entry): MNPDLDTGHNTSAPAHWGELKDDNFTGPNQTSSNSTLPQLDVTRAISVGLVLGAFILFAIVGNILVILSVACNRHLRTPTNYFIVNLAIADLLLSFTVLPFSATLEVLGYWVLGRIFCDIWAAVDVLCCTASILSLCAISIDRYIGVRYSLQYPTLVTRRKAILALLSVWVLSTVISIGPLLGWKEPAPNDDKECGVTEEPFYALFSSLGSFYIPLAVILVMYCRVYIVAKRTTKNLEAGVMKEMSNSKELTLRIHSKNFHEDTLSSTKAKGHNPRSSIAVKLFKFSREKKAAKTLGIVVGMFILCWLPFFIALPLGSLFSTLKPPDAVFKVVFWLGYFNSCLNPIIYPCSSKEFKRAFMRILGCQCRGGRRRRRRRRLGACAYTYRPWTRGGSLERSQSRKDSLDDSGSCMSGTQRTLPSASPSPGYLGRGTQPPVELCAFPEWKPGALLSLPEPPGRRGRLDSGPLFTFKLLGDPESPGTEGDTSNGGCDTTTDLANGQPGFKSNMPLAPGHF
Kind of assay: Antagonist activity at alpha1B adrenoceptor in Wistar rat spleen assessed as phenylephrine-induced contractions after 30 mins.

Assay [9] concerns CHO. Kind of assay: Selectivity index, ratio of pKi for human recombinant 5-HT1A receptor expressed in HeLa cell membrane to pKi for human recombinant alpha1D adrenoceptor expressed in CHO cell membrane. The assay is classed as cell-based.
For assay [10], the system named is CHO. Kind of assay: Selectivity index, ratio of pKi for human recombinant alpha1A adrenoceptor to pKi for human recombinant alpha1B adrenoceptor expressed in CHO cell membrane. The assay is classed as cell-based.
Assay [11] has as its target T6, Alpha-1A adrenergic receptor (Rattus norvegicus) (UniProt P43140).
T6 sequence (whole entry): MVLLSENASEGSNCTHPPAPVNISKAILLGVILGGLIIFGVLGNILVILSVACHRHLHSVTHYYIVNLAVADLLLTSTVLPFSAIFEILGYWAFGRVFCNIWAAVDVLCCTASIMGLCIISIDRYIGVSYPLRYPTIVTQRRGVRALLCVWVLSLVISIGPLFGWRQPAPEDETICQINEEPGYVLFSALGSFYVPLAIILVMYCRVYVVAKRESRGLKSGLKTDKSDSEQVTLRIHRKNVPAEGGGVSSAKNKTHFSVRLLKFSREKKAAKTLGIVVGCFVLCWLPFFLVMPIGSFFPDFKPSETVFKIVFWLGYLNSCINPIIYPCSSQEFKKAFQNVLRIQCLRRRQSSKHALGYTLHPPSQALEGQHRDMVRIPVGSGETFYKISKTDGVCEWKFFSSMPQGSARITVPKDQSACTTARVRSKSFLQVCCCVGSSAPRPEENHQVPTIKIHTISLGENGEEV
The assay can be described thus: Antagonist activity at alpha1A adrenoceptor in Wistar rat vas deferans assessed as noradrenaline-induced contractions after 30 mins.

The species named for assay [12] is Rattus norvegicus. Kind of assay: Selectivity ratio of pA2 for alpha1D adrenoceptor in Wistar rat thoracic aorta to pKb for alpha1B adrenoceptor in Wistar rat spleen.
Assay [13] relates to CHO. The assay can be described thus: Selectivity index, ratio of pKi for human recombinant alpha1D adrenoceptor to pKi for human recombinant alpha1B adrenoceptor expressed in CHO cell membrane. The assay is classed as cell-based.
For assay [14], the target named is T7, Alpha-1B adrenergic receptor (Homo sapiens, UniProt P35368).
T7 sequence (P35368 whole entry): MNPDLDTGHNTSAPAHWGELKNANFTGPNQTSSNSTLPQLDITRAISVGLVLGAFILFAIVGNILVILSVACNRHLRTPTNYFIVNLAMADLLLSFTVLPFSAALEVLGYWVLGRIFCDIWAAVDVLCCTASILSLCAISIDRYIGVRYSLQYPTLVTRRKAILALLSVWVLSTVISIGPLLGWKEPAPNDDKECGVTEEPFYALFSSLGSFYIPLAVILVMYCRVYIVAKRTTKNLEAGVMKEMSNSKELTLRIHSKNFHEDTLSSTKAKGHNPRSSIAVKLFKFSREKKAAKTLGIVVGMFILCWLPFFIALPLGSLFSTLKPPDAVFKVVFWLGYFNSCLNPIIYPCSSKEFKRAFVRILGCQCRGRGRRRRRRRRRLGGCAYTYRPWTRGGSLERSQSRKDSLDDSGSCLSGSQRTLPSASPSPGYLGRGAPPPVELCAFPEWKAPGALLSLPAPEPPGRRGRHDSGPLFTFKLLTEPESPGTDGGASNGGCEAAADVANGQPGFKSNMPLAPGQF
The assay can be described thus: Displacement of [3H]prazosin from human recombinant alpha1B adrenoceptor expressed in CHO cell membrane after 30 mins by liquid scintillation counting. The assay is classed as cell membranes.

Assay [15] concerns the target T8, 5-hydroxytryptamine receptor 1A (Homo sapiens) (UniProt P08908).
T8 sequence (whole entry): T4 sequence (P08908 whole entry)
Kind of assay: Agonist activity at human recombinant 5-HT1A receptor expressed in HeLa cell membrane after 20 mins by [35S]GTPgammaS binding assay. Type of assay: functional, cell membranes. For orientation: GTPγS resists hydrolysis and so accumulates on activated G proteins.

Regarding `c1ccc(OCCNC[C@H]2COC(c3ccccc3)(c3ccccc3)O2)cc1`, the Ki (in general, the dissociation constant of the complex between target and ligand, obtained from inhibition or displacement) in assay [1] is 0.126 µM; in assay [2] it was 0.0145 µM; in assay [7], 0.0038 µM; in [14], 0.115 µM. Besides, the figures for the Ratio in the assay listed under Rattus norvegicus [3], in the assay listed under Rattus norvegicus [6] and in the assay listed under Rattus norvegicus [12] were 1, 26 and 30, respectively. In addition, the Ratio pKi in the assay with CHO [4] is 9; with CHO [9], 4; with CHO [10], 1; in the assay on CHO [13], 8. Moreover, the Kb in assay [5] was 0.0245 µM. In addition, the pKb – broadly, −log10 of the Kb, conventionally taken in molar units – in assay [8] amounted to 6.14; in assay [11], 6.2. Also, the Emax (as a rule, the greatest response seen or fitted, relative to the assay's reference) in [15] came to 50%. Further, the pD2 in [15] came out at 6.85.
On to `c1ccc(OCCNCC2COC(c3ccccc3)(c3ccccc3)O2)cc1` (racemic), for which, in [2], the Ki was 0.0117 µM. For the same compound, the Ratio in the assay filed under Rattus norvegicus [3] was 0.5; in the assay filed under Rattus norvegicus [6], 110; in the assay filed under Rattus norvegicus [12] it was 219. In addition, the Ratio pKi stood at 3 with CHO [4], 3 in the assay with CHO [9], 2 in the assay with CHO [10] and 5 in the assay on CHO [13]. For the same compound, the Kb in assay [5] is 0.00631 µM. Besides, the pKb in assay [8] was determined as 5.86; in assay [11] it was 6.16. Moreover, the pD2 in [15] is 8.8.
Take `c1ccc(OCCNC[C@@H]2COC(c3ccccc3)(c3ccccc3)O2)cc1`: the Ki is 0.0302 µM in [1], 0.0229 µM in assay [2], 0.00302 µM in assay [7] and 0.0794 µM in assay [14]. Besides, the Ratio in the assay filed under Rattus norvegicus [3] was 1; in the assay filed under Rattus norvegicus [6], 23; in the assay filed under Rattus norvegicus [12], 34. Moreover, the Ratio pKi is 1 with CHO [4], 8 with CHO [9], 3 in the assay with CHO [10] and 3 with CHO [13]. The Kb in assay [5] was 0.00513 µM. For the same compound, the pKb in assay [8] was 6.51; in assay [11] it was 6.67. Besides, the Emax in assay [15] stood at 65.3%. For the same compound, the pD2 in assay [15] was 7.45.
